The text below walks through data of PubChem BioAssay AID1259407 (Chemical Carcinogenesis Research Information System (CCRIS), 2018).

This data set has as its system CCRIS mutagenicity, Ames/micronucleus/aberration tests. Nature of the data set: CCRIS mutagenicity studies.

Activity calls are given as the source filed them. How the calls were made is not given here.

On to `C=C(C)C`, for which the mutagenic call by setting is: (Test System: AMES SALMONELLA TYPHIMURIUM, Strain/Indicator: TA97, Metabolic Activation: HAMSTER LIVER S-9, AROCLOR 1254 (10% OR 30%), Method: DESICCATOR) “inactive; negative”; (Test System: AMES SALMONELLA TYPHIMURIUM, Strain/Indicator: TA97, Metabolic Activation: NONE, Method: DESICCATOR) “inactive; negative”; (Test System: AMES SALMONELLA TYPHIMURIUM, Strain/Indicator: TA97, Metabolic Activation: RAT LIVER S-9, AROCLOR 1254 (10% OR 30%), Method: DESICCATOR) “inactive; negative”; (Test System: AMES SALMONELLA TYPHIMURIUM, Strain/Indicator: TA98, Metabolic Activation: HAMSTER LIVER S-9, AROCLOR 1254 (10% OR 30%), Method: DESICCATOR) “inactive; negative”; (Test System: AMES SALMONELLA TYPHIMURIUM, Strain/Indicator: TA98, Metabolic Activation: NONE) “inactive; negative”; (Test System: AMES SALMONELLA TYPHIMURIUM, Strain/Indicator: TA98, Metabolic Activation: NONE, Method: DESICCATOR) “inactive; negative”. Moreover, the mutagenic call (Test System: AMES SALMONELLA TYPHIMURIUM, Strain/Indicator: TA98, Metabolic Activation: NONE, Method: GAS EXPOSURE) was “inactive; negative”; the mutagenic call (Test System: AMES SALMONELLA TYPHIMURIUM, Strain/Indicator: TA98, Metabolic Activation: RAT LIVER S-9, AROCLOR 1254 (10% OR 30%), Method: DESICCATOR) is “inactive; negative”; the mutagenic call (Test System: AMES SALMONELLA TYPHIMURIUM, Strain/Indicator: TA98, Metabolic Activation: RAT LIVER S-9, PHENOBARBITAL AND BETA-NAPHTHOFLAVONE (40%), Method: GAS EXPOSURE) is “inactive; negative”; the mutagenic call (Test System: AMES SALMONELLA TYPHIMURIUM, Strain/Indicator: TA98, Metabolic Activation: RAT, LIVER, S-9, KC 500) is “inactive; negative”; the mutagenic call (Test System: AMES SALMONELLA TYPHIMURIUM, Strain/Indicator: TA100, Metabolic Activation: HAMSTER LIVER S-9, AROCLOR 1254 (10% OR 30%), Method: DESICCATOR) is “inactive; negative”; the mutagenic call (Test System: AMES SALMONELLA TYPHIMURIUM, Strain/Indicator: TA100, Metabolic Activation: NONE) is “inactive; negative”. Besides, the mutagenic call (Test System: AMES SALMONELLA TYPHIMURIUM, Strain/Indicator: TA100, Metabolic Activation: NONE, Method: DESICCATOR) was “inactive; negative”; the mutagenic call (Test System: AMES SALMONELLA TYPHIMURIUM, Strain/Indicator: TA100, Metabolic Activation: NONE, Method: FLASK ASSAY) was “inactive; negative”; the mutagenic call (Test System: AMES SALMONELLA TYPHIMURIUM, Strain/Indicator: TA100, Metabolic Activation: NONE, Method: GAS EXPOSURE) is “inactive; negative”; the mutagenic call (Test System: AMES SALMONELLA TYPHIMURIUM, Strain/Indicator: TA100, Metabolic Activation: RAT LIVER S-9, AROCLOR 1254 (10% OR 30%), Method: DESICCATOR) was “inactive; negative”; the mutagenic call (Test System: AMES SALMONELLA TYPHIMURIUM, Strain/Indicator: TA100, Metabolic Activation: RAT LIVER S-9, PHENOBARBITAL AND BETA-NAPHTHOFLAVONE (40%), Method: GAS EXPOSURE) is “inactive; negative”; the mutagenic call (Test System: AMES SALMONELLA TYPHIMURIUM, Strain/Indicator: TA100, Metabolic Activation: RAT, LIVER, S-9, KC 500) is “inactive; negative”. For the same compound, the mutagenic call by setting is: (Test System: AMES SALMONELLA TYPHIMURIUM, Strain/Indicator: TA102, Metabolic Activation: NONE, Method: FLASK ASSAY) “inactive; negative”; (Test System: AMES SALMONELLA TYPHIMURIUM, Strain/Indicator: TA1535, Metabolic Activation: HAMSTER LIVER S-9, AROCLOR 1254 (10% OR 30%), Method: DESICCATOR) “inactive; negative”; (Test System: AMES SALMONELLA TYPHIMURIUM, Strain/Indicator: TA1535, Metabolic Activation: NONE) “inactive; negative”; (Test System: AMES SALMONELLA TYPHIMURIUM, Strain/Indicator: TA1535, Metabolic Activation: NONE, Method: DESICCATOR) “inactive; negative”; (Test System: AMES SALMONELLA TYPHIMURIUM, Strain/Indicator: TA1535, Metabolic Activation: NONE, Method: FLASK ASSAY) “inactive; negative”; (Test System: AMES SALMONELLA TYPHIMURIUM, Strain/Indicator: TA1535, Metabolic Activation: NONE, Method: GAS EXPOSURE) “inactive; negative”. Moreover, the mutagenic call was “inactive; negative” (Test System: AMES SALMONELLA TYPHIMURIUM, Strain/Indicator: TA1535, Metabolic Activation: RAT LIVER S-9, AROCLOR 1254 (10% OR 30%), Method: DESICCATOR); “inactive; negative” (Test System: AMES SALMONELLA TYPHIMURIUM, Strain/Indicator: TA1535, Metabolic Activation: RAT LIVER S-9, PHENOBARBITAL AND BETA-NAPHTHOFLAVONE (40%), Method: GAS EXPOSURE); “inactive; negative” (Test System: AMES SALMONELLA TYPHIMURIUM, Strain/Indicator: TA1535, Metabolic Activation: RAT, LIVER, S-9, KC 500); “inactive; negative” (Test System: AMES SALMONELLA TYPHIMURIUM, Strain/Indicator: TA1537, Metabolic Activation: NONE); “inactive; negative” (Test System: AMES SALMONELLA TYPHIMURIUM, Strain/Indicator: TA1537, Metabolic Activation: NONE, Method: GAS EXPOSURE); “inactive; negative” (Test System: AMES SALMONELLA TYPHIMURIUM, Strain/Indicator: TA1537, Metabolic Activation: RAT LIVER S-9, PHENOBARBITAL AND BETA-NAPHTHOFLAVONE (40%), Method: GAS EXPOSURE). The mutagenic call was “inactive; negative” (Test System: AMES SALMONELLA TYPHIMURIUM, Strain/Indicator: TA1537, Metabolic Activation: RAT, LIVER, S-9, KC 500); “inactive; negative” (Test System: AMES SALMONELLA TYPHIMURIUM, Strain/Indicator: TA1538, Metabolic Activation: NONE); “inactive; negative” (Test System: AMES SALMONELLA TYPHIMURIUM, Strain/Indicator: TA1538, Metabolic Activation: RAT, LIVER, S-9, KC 500); “inactive; negative” (Test System: E. COLI, Strain/Indicator: WP2 UVRA, Metabolic Activation: NONE); “inactive; negative” (Test System: E. COLI, Strain/Indicator: WP2 UVRA, Metabolic Activation: RAT, LIVER, S-9, KC 500); “inactive; negative” (Test System: E.COLI, Strain/Indicator: WP2UVRA, Metabolic Activation: NONE, Method: GAS EXPOSURE). Besides, the mutagenic call (Test System: E.COLI, Strain/Indicator: WP2UVRA, Metabolic Activation: RAT LIVER S-9, PHENOBARBITAL AND BETA-NAPHTHOFLAVONE (40%), Method: GAS EXPOSURE) is “inactive; negative”.

In the case of `Cc1ccccc1OCC(O)CNCCOc1ccc(C(N)=O)cc1` (configuration not stated), the mutagenic call (Test System: AMES SALMONELLA TYPHIMURIUM, Strain/Indicator: TA98, Metabolic Activation: NONE, Method: STANDARD PLATE) is “inactive; negative”; the mutagenic call (Test System: AMES SALMONELLA TYPHIMURIUM, Strain/Indicator: TA98, Metabolic Activation: RAT, LIVER, S-9, AROCLOR 1254, Method: STANDARD PLATE) was “inactive; negative”; the mutagenic call (Test System: AMES SALMONELLA TYPHIMURIUM, Strain/Indicator: TA100, Metabolic Activation: NONE, Method: STANDARD PLATE) is “inactive; negative”; the mutagenic call (Test System: AMES SALMONELLA TYPHIMURIUM, Strain/Indicator: TA100, Metabolic Activation: RAT, LIVER, S-9, AROCLOR 1254, Method: STANDARD PLATE) is “inactive; negative”.

For the compound `Cc1cc(C)cc(NO)c1`, under “Test System: AMES SALMONELLA TYPHIMURIUM, Strain/Indicator: TA100, Metabolic Activation: RAT, LIVER, S-9, PCB, Method: PREINCUBATION”, the mutagenic call was “active; positive”.
